Assay results: PubChem BioAssay AID2305 (GlaxoSmithKline (GSK), 2010)

System: P. falciparum 3D7 growth, pLDH absorbance
Test: blood-stage malaria parasite growth potency – strain 3D7, dose response (AID 2305)

`COc1ccc(NC(C)C(=O)Nc2ccc(Br)cc2)cc1S(=O)(=O)N1CCCCC1` (stereo not drawn) showed an IC50 of 220 nM.
Molecule `CCCCCCN1CCN(Cc2cccc(NC(=O)c3cccc(OCC)c3)c2)CC1` has an IC50 of 1110 nM.
With `CCCCN(CCCC)C(=NCCCCCCN=C(NC(N)=NCc1ccc(Cl)c(Cl)c1)N(CCCC)CCCC)NC(N)=NCc1ccc(Cl)c(Cl)c1` the IC50 was 400 nM.
Work on `Cc1ccc2nc3c(cc(C(=O)NCc4ccccc4)c(=N)n3CCCn3ccnc3)c(=O)n2c1` yielded an IC50 of 990 nM.
For `CC(=O)Nc1cccc(C(=O)Nc2cccc(-c3cccc(-c4nc5ccc(F)cc5[nH]4)c3)c2)c1`, the IC50 was 550 nM.
`O=C(Nc1cccc(-c2cc(-c3c(Cl)cccc3Cl)no2)c1)c1cnc2ccccc2c1` showed an IC50 of 1100 nM.
Work on `Cc1nc(-c2cccc(C(=O)Nc3cnc4ccccc4c3)c2)no1` yielded an IC50 of 1160 nM.
`O=C(NC1CCN(CCc2c[nH]c3ccc(F)cc23)CC1)c1ncc(-c2ccccc2)[nH]1` gave an IC50 of 870 nM.
For `Cc1ccc(C(=O)N2CCN(Cc3nccs3)CC2)cc1`, the IC50 was 1010 nM.
`CN1CCCC(CN2CCN(Cc3cccc(-c4ccc(-c5nc6ccc(C(F)(F)F)cc6[nH]5)cc4)c3)CC2)C1` (stereo not drawn) gave an IC50 of 150 nM.
`O=C(Nc1ccc(C(F)(F)F)cc1)c1cccc(S(=O)(=O)NCC2CCCN(CC3CCCCC3)C2)c1` (stereo not drawn) was tested, and the IC50 was 750 nM.
`COc1ccc2nc(Nc3nc(-c4ccccn4)cs3)sc2c1` showed an IC50 of 1120 nM.
`CCCCN(CCCC)CCNC(=O)c1ccc(-c2nc3ccc(Cl)cc3[nH]2)c(OCC)c1` was tested, and the IC50 was 570 nM.
`Cc1cc(N[C@@H](CC(C)C)C(=O)NCCc2ccccc2)nc(NCC2CCCCC2)n1` gave an IC50 of 900 nM.
`Nc1nc(N)c2c(CCc3ccc(Cl)c(Cl)c3)cccc2n1` was tested, and the IC50 was 670 nM.
In the case of `COc1ccccc1CNc1ccnc(N2CC(Oc3ccc(F)cc3)C2)n1`, the IC50 is reported as 850 nM.
`CN(C)CCC1CCN(CCS(=O)(=O)c2cccc(Nc3ccc(-c4cccc(F)c4)cn3)c2)CC1` gave an IC50 of 1070 nM.
`Cc1cc2ccc(/C=C/C(=O)NC3CCC(CCN4CCc5ccc(C#N)cc5CC4)CC3)cc2[nH]1` (stereo not drawn) showed an IC50 of 940 nM.
In the case of `COc1ccc2nc(-c3ccccc3)cc(NN=Cc3ccc([N+](=O)[O-])cc3)c2c1`, the IC50 is reported as 150 nM.
`COc1cc(N)cc2sc(N)nc12` gave an IC50 of 250 nM.
In the case of `Cc1ccc2nc(/C=C/c3cccc4cc[nH]c34)[nH]c2c1`, the IC50 is reported as 1180 nM.
`COc1cc2ccccc2cc1CCNCCCCNCCc1cc2ccccc2cc1OC` gave an IC50 of 400 nM.
For `CCNc1cc(C)nc(Nc2ccc(NC(=O)c3ccccc3)cc2)n1`, the IC50 was 1020 nM.
For `CCN(CC)CCCN(C(=O)Nc1ccc(C#N)cc1)c1nc(-c2ccc(F)cc2)cs1`, the IC50 was 650 nM.
Molecule `CCOc1ccc2nc(C)cc(NN=Cc3ccccc3Cl)c2c1` has an IC50 of 190 nM.
Work on `Cn1c(-c2ccccc2)cc2c3c(N)nc(N)nc3ccc21` yielded an IC50 of 890 nM.
`O=C(NC1CCN(c2ccnc3ccccc23)C1)c1ccc(OC(F)(F)F)cc1` (stereo not drawn) gave an IC50 of 1150 nM.
`O=C(/C=C/c1ccc(Cl)c(Cl)c1)NCCCCCN1CCCN(C(=O)Nc2cc(F)cc(F)c2)CC1` gave an IC50 of 770 nM.
With `O=c1cc(NCCCNC2CCc3c(Cl)cc(Cl)cc32)[nH]c2ccccc12` (stereo not drawn) the IC50 was 930 nM.
In the case of `Cc1ccccc1C1CCN(C2CCC(NC(=O)/C=C/c3ccc4c(c3)OC(F)(F)O4)CC2)CC1` (stereo not drawn), the IC50 is reported as 670 nM.
`O=C1Nc2cccc3c2C1(CCCCCN1CCC(c2c[nH]c4ccncc24)CC1)CCC3` (stereo not drawn) showed an IC50 of 990 nM.
Work on `Cc1ccc2nc3c(cc(C(=O)NCCc4ccccc4)c(=N)n3CCCOC(C)C)c(=O)n2c1` yielded an IC50 of 890 nM.
`COc1ccc(C(=O)CCC(=O)N(CCC2CCCN2C)Cc2ccc(-c3ccc(CNCCc4ccc(S(C)(=O)=O)cc4)cn3)cc2)cc1F` (stereo not drawn) showed an IC50 of 870 nM.
Work on `CCCCCN1C(=O)N(c2ccc(Cl)c(Cl)c2)C(N(O)C(=O)Nc2ccc(Cl)c(Cl)c2)C1(C)C` (stereo not drawn) yielded an IC50 of 550 nM.
Molecule `COc1ccc(-c2ccc(NC(=O)c3ccc(F)cc3)cc2)cc1CN1CCCN(C)CC1` has an IC50 of 660 nM.
Molecule `CCCCSc1ccc(CNCCCCCCNCc2ccc(SCCCC)c3ccccc23)c2ccccc12` has an IC50 of 630 nM.
`CCCCNc1c(CC)c(C)c(C#N)c2nc3ccccc3n12` showed an IC50 of 380 nM.
In the case of `CN1CCC(NCc2ccc(-c3cnc(NCc4ccccc4)nc3)cc2)CC1`, the IC50 is reported as 830 nM.
Work on `O=S(=O)(NCCN1CCCC1)c1cccc(-c2ccccc2CNC2Cc3ccccc3C2)c1` yielded an IC50 of 740 nM.
For `O=C(Nc1ccc(-c2ccccc2)c(OCCN2CCNCC2)c1)c1ccc(-c2ccc(Cl)cc2)cc1`, the IC50 was 780 nM.
For `CN(Cc1ccc(C#N)cc1)C1CCN(c2cc(NC(=O)c3cccc(F)c3)ccn2)CC1`, the IC50 was 1750 nM.
`CN1CCCC1CNS(=O)(=O)c1ccc(C(=O)NCC2CC2)cc1` (stereo not drawn) showed an IC50 of 170 nM.
In the case of `CN1CCC(NCc2cccc(-c3cnc(NCc4ccccc4)nc3)c2)CC1`, the IC50 is reported as 970 nM.
In the case of `COc1ccc(CNCc2ccc(F)cc2)cc1-c1cccc(S(=O)(=O)NCCN2CCCC2)c1`, the IC50 is reported as 800 nM.
In the case of `Cc1cc(NCCc2ccccc2)nc(/N=C(\N)Nc2cccc([N+](=O)[O-])c2)n1`, the IC50 is reported as 140 nM.
`N#Cc1ccc(-c2ccc(C(=O)NCCCCN3CCC(c4ccc5c(c4OCc4ccccn4)CCCC5)CC3)cc2)cc1` showed an IC50 of 820 nM.
In the case of `O=C(Nc1ccc(-c2cccc(-c3nc4ccc(F)cc4[nH]3)c2)cc1)c1cnn2cccnc12`, the IC50 is reported as 650 nM.
Molecule `Cc1cccc2[nH]c(-c3ccc(-c4ccc(NC(=O)C(=O)c5cccn5C)cc4)cc3)nc12` has an IC50 of 820 nM.
`CN(C)c1ccc(C=C2SC(=O)NC2=Nc2ccccc2)cc1` showed an IC50 of 30 nM.
`Cc1cc(C(=O)Nc2ccc3c(c2)CCN3C2CCN(Cc3cc(F)cc(F)c3F)C2)no1` (stereo not drawn) was tested, and the IC50 was 280 nM.
`O=C(Cn1c(SCc2cccc(F)c2F)cc(=O)c2ccccc21)N(CCc1cnc[nH]1)Cc1ccc(-c2ccc(C(F)(F)F)cc2)cc1` was tested, and the IC50 was 800 nM.
Molecule `Cc1cccc2[nH]c(-c3ccc(-c4cccc(NC(=O)C(C)CN(C)C)c4)s3)nc12` (stereo not drawn) has an IC50 of 720 nM.
`CC(C)(C)c1ccc(NC(=O)c2cccc(CN3CCN(Cc4cccc(O)c4)CC3)c2)cc1` gave an IC50 of 1400 nM.
`COc1ccc(C2CCN(CCCCNC(=O)c3ccc(NC(=O)c4ccc(Cl)cc4)cc3)C2)c(OC)c1` (stereo not drawn) showed an IC50 of 1200 nM.
`CN1CCN(CCCN(Cc2cccc(-c3ccc(CNC4CCCC4)cc3)c2)C(=O)CCC2CCCC2)CC1` gave an IC50 of 760 nM.
`Cc1cc(C2CCN(CCCCNC(=O)c3ccc(NC(=O)c4ccc(Cl)cc4)cc3)CC2)c(C)cc1OCc1cccnc1` was tested, and the IC50 was 600 nM.
Molecule `Clc1cccc(C=NNc2nc(Nc3ccccc3)nc(Nc3ccccc3)n2)c1` has an IC50 of 840 nM.
`Cc1cccc2[nH]c(-c3ccc(-c4ccc(NC(=O)Nc5ccc(Cl)cc5)cc4)cc3)nc12` was tested, and the IC50 was 100 nM.
Work on `COc1c(OC)c(OC)c2ccccc2c1CCNCCCCNCCc1c(OC)c(OC)c(OC)c2ccccc12` yielded an IC50 of 610 nM.
`CCCCCCCN1CC[C@H](CC(=O)Nc2ccnc3ccc(OC)cc23)[C@@H](CC)C1` was tested, and the IC50 was 590 nM.
With `COc1ccc(-c2ccc(CNC(=O)c3ccc(C#N)cc3)c(F)c2)cc1CN1CCCN(C)CC1` the IC50 was 1140 nM.
`O=C(Nc1ccc(N2CCN(Cc3cccc(F)c3)CC2)cc1)c1cccs1` gave an IC50 of 680 nM.
Molecule `C[C@@H]([C@@H](CCCCc1ccccc1)C(=O)N[C@H](C(=O)Nc1cccnc1)C(C)(C)C)N(O)C=O` has an IC50 of 930 nM.
With `COc1ccc2c(NN=Cc3cccc(C)n3)cc(-c3ccccc3)nc2c1` the IC50 was 750 nM.
Molecule `O=C(/C=C/c1cccs1)NC1CCC(CN2CCC(c3c[nH]c4ccccc34)CC2)CC1` (stereo not drawn) has an IC50 of 1050 nM.
`COc1c(O)cc2oc(-c3ccc(O)cc3)cc(=O)c2c1O` gave an IC50 of 770 nM.
Molecule `CC[C@H](C)CNC(=O)c1ccnc(-c2ccc(CNC3Cc4ccccc4C3)cc2)c1` has an IC50 of 570 nM.
With `COc1ccc(-c2csc(NC(=O)CCC(=O)O)n2)cc1OC` the IC50 was 840 nM.
`OCCN1CCN(C(=S)Nc2ccccc2)CC1` gave an IC50 of 940 nM.
Molecule `COc1ccc(Br)cc1/C=C/C(=O)Nc1cccc(C2CCN(C)CC2)c1` has an IC50 of 520 nM.
In the case of `O=C(Nc1cccc(CN2CCN(Cc3ccc(O)cc3)CC2)c1)c1ccc(Cl)c(Cl)c1`, the IC50 is reported as 250 nM.
`CC(=O)c1ccc(O)c(CC(O)CO)c1` (stereo not drawn) showed an IC50 of 720 nM.
`COc1cc2nc(N3CCC(CNC(=O)c4ccc(-c5ccc(C(=O)N(C)C)cc5OCCO)cc4)CC3)nc(N)c2cc1OC` gave an IC50 of 640 nM.
`COc1ccc(/C=C/c2ccc(-c3c(C)[nH]c(C)c(Cl)c3=O)cc2)cc1OC` showed an IC50 of 280 nM.
With `O=S(=O)(Nc1cc2c(cc1OCc1ccccc1)CCN(C1CCC1)CC2)c1ccc(-c2ccc(Cl)cc2)cc1` the IC50 was 1140 nM.
Work on `O=[N+]([O-])c1ccc(Nc2nc(NN=Cc3ccc(-c4ccc([N+](=O)[O-])cc4)o3)nc(Nc3ccccc3)n2)cc1` yielded an IC50 of 640 nM.
`COc1ccc(NC(=O)CCNc2cc(C)nc(Nc3ccccc3)n2)cc1` showed an IC50 of 1100 nM.
Work on `O=C(C(=O)c1ccc(Nc2ccnc3cc(-c4ccccn4)ccc23)cc1)c1ccccc1` yielded an IC50 of 970 nM.
Molecule `CC(C)C[C@H](NC(=O)c1cc2ccccc2s1)C(=O)N[C@H]1CCN(Cc2ccc(OC[C@@H]3CCCN3C)c(Cl)c2)C1` has an IC50 of 850 nM.
`CN1CCN(Cc2cccc(Nc3nccc(Nc4ccc(Oc5ccccc5)cc4)n3)c2)CC1` showed an IC50 of 300 nM.
In the case of `N#CCOc1c(C2CCN(CCCCNC(=O)c3ccc(-c4ccc(C(F)(F)F)cc4)cc3)CC2)ccc2c1CCCC2`, the IC50 is reported as 760 nM.
`Oc1ccc2[nH]c(-c3cccc(F)c3)nc2c1CN1CCC(N2CCCC2)CC1` gave an IC50 of 180 nM.
`CCOC(=O)c1c(CSc2ccccc2)oc2cc(CN(C)C)c(O)c(Cl)c12` was tested, and the IC50 was 660 nM.
`Cc1nc(Nc2ccc(F)cc2)nc(N2CCc3ccccc3C2C)c1CO` (stereo not drawn) gave an IC50 of 740 nM.
`COc1cccc(-c2ccc3ccnc(N)c3c2)c1` showed an IC50 of 410 nM.
`O=C(/C=C/c1ccc(Cl)c(Cl)c1)NCCCCCN1CCC(C(=O)Nc2ccc(Cl)cc2)CC1` showed an IC50 of 780 nM.
`Fc1cccc(COc2ccc(Nc3ncnc4sc(C#CC5CCCCN5)cc34)cc2Cl)c1` (stereo not drawn) gave an IC50 of 540 nM.
In the case of `COc1ccc(CNC(=O)NC2CCN(c3ccnc(Nc4ccc(OC)cc4)n3)C2)cc1` (stereo not drawn), the IC50 is reported as 1000 nM.
In the case of `N#Cc1ccc(C(=O)Nc2cccc(-c3ccc(CN4CCCC4)cc3)c2)cc1`, the IC50 is reported as 720 nM.
Work on `Cc1ncccc1C(=O)Nc1cccc(-c2cccc(-c3nc4c(C)cccc4[nH]3)c2)c1` yielded an IC50 of 960 nM.
Work on `O=C(Nc1ccc(Cl)cc1)Nc1ccc(-c2cccc(-c3nc4ccccc4[nH]3)c2)cc1` yielded an IC50 of 160 nM.
Work on `CN(C)CC(O)C(c1ccccc1)c1cccc(Br)c1` (stereo not drawn) yielded an IC50 of 160 nM.
Molecule `CCCOc1ccc(C(=O)Nc2nonc2-c2ccc(OC)c(OC)c2)cc1` has an IC50 of 990 nM.
`CC(C)NCc1cccc(-c2ccc(-c3nc4ccc(C(F)(F)F)cc4[nH]3)cc2)c1` showed an IC50 of 190 nM.
`CCCCCCCN(Cc1ccc(OC(C)(C)C(=O)OCC)cc1)C(=O)Nc1ccccc1OCC` gave an IC50 of 1030 nM.
`Cc1cccc2[nH]c(-c3ccc(-c4ccc(C(=O)NCCc5cn(C)cn5)cc4)s3)nc12` gave an IC50 of 960 nM.
`c1ccc(-c2cc(NCCCCCCCCNc3cc(-c4ccccc4)nc4ccccc34)c3ccccc3n2)cc1` was tested, and the IC50 was 390 nM.
For `COCCNCc1cccc(-c2ccc3nccc(Nc4cc(O)ccc4C)c3c2)c1`, the IC50 was 750 nM.
